Data on 1 compound can be found in US9089561B2, “Methods for treating depression, neurodegeneration, inhibiting amyloid β deposition, delaying senescence, and extending life spans with heterocyclic compounds” (ZENYAKU KOGYO KABUSHIKI KAISHA, priority 2006, dated 2015).

The test system of data set [1] is senescene accelerated mice (SAMP8). The data set can be described thus: amyloid β deposition in the hippocampus by amyloid β immunohistochemistry. It is filed as in vivo. Conditions: 0.002, 0.01 and 0.1 mg/kg/day in drinking water for 2 months, vs tap water. Here is the method: Senescene accelerated mice (SAMP8) (male, 8 months old at the beginning of the study) were used for experiment. […] Eight weeks after the dosing, the mouse brain was removed, Methacarn-fixed (methanol:chloroform: acetic acid=6:3:1), and paraffin-embedded. Then, sections of 8 μm in thickness were prepared using a microtome.
The sections were immunostained with streptavidin-biotin using a VECTASTATIN ABC kit. After one hour of incubation in 10% normal goat serum, the anti-amyloid β (Aβ) antibody was diluted with PBS to ten fold and incubated at 4° C. overnight. The following day, PBS rinsing, 1.5 hours of incubation with biotinylated anti-rabbit secondary antibody, PBS rinsing, and 1.5 hours of incubation with peroxidase-labeled streptavidin were conducted. The immunoreaction was visualized with DAB and specimens were prepared.
Immunoreactive Aβ-like granules in the hippocampus were counted under the microscope. The Aβ-like immunoreactive granule was observed as brown deposits in the hippocampus. The count was made for one section per individual.

Data set [2] can be described thus: preclinical study (safety).
Data set [3] deals with gerbil transient forebrain ischemia model. The data set can be described thus: delayed neuronal death in hippocampus CA1 region, gerbil transient forebrain ischemia model. The data set is classed as in vivo. Conditions: four days after reperfusion. Here is the method:
Gerbils (male, weighing approximately 55 to 80 g) were pinched with an exposured bilateral common carotid artery by microclip to cause the cerebral ischemia under 2% halothane inhalation anesthesia. After four minutes of ischemia, the microclip was removed to reperfuse the cerebral ischemia and the anesthesia was stopped. Four days after the reperfusion, the brain was removed and formalin-fixed. Sections of 4 μm in thickness were prepared and stained with hematoxylin-eosin. Surviving cells in the entire hippocampus CA1 field on both sides of each specimen were counted using a micrometer under the microscope. The number of surviving cells per 0.5 mm was obtained.
Compound 24 was suspended in 1% HPC and orally given one hour before the cerebral ischemia and 5 hours after the reperfusion. Then, two doses per day were given from the following day to the third day since the perfusion. The surviving cell count in the hippocampus CA1 field was expressed by the average±standard error. The Mann-Whitney's U test was used to obtain significant differences. The effective oral dosage of Compound 24 was plotted as abscissa and the surviving cell count/0.5 mm was plotted as ordinate.

Data set [4] deals with senescene accelerated mice (SAMP8). The data set can be described thus: grading scores as aging indicator in senescene accelerated mice. It is filed as in vivo. Here is the method: (§1) Senescene accelerated mice (SAMP8) (male, 8 months old at the beginning of the study) were used in the study.
(§2) Compound 24 dissolved in tap water was given to the senescene accelerated mice at a dosage of 0.001, 0.01, or 0.1 mg/kg/day as drinking water. Tap water was given to the control mice as drinking water.
As an aging indicator of senescene accelerated mice, grading scores (Takeda et al., 1981) were measured after 0, 4, 8, 12, and 16 weeks of drinking water dosing in a short term study and after 12, 16, 20, 24, 28, and 32 weeks of drinking water dosing in a long term study.

Data set [5] has the same test system. The data set can be described thus: survival rate / average life span of senescene accelerated mice. Conditions: 0.01 mg/kg/day in drinking water, vs control group given tap water, at any age in month. The data set is classed as in vivo. Here is the method: as §1, §2
FIG. 6 is a graphical representation showing the influence of Compound 24 on the survival rate of senescene accelerated mice (SAMP8). The age in months of mice is plotted as abscissa and the survival rate (%) is plotted as ordinate.

Each structure is given as a SMILES string.

In the case of `O=C1N=C2C=CC=CN2C12Cc1ccccc1C2` [Compound 24, spiro[imidazo[1,2-a]pyridin-2(3H)-one-3,2′-indan]], the “number of amyloid β-immunoreactive granules in the hippocampus” value in data set [1] is recorded as “significantly (*) decreased”. For the same compound, the “safety in a preclinical study” value in data set [2] is “highly safe”. For the same compound, the “surviving cell count in the hippocampus CA1 field” value in data set [3] (0.01 mg/kg oral, n=7, average±standard error) is on record as 27.8±1.9 /0.5 mm; in data set [3] (0.1 mg/kg oral, n=8, average±standard error), 32.5±9.4 /0.5 mm; in data set [3] (1 mg/kg oral, n=9, average±standard error), 44.3±9.4 /0.5 mm. Further, the “grading score vs control, long term study” value was “significant differences (*, **)” in data set [4] (0.01 mg/kg/day in drinking water, Weeks 20 to 32) and “significant differences (*, **)” in data set [4] (0.1 mg/kg/day in drinking water, Weeks 16 to 32). Also, in data set [4] (Week 16, 0.001, 0.01 and 0.1 mg/kg/day in drinking water), the “grading score vs control, short term study” value is “Significant differences (*)”. The “grading score (aging indicator), short term study” value in data set [4] (in drinking water, up to 16 weeks, score of water group increased after Week 12) was “did not increase”. Also, the “average life span (survival rate)” value in data set [5] is on record as “average life span was extended”.
